Assay results: ChEMBL document CHEMBL3507680, “University of Dundee, Gates Library screen for HepG2 cell viability”

Assay: Human HepG2 cell viability assay in 384 well format
Format: toxicity, cell-based
Set-up: dose 125 nL, time 70.5 hour; concentration not given beside the values
Details: HepG2 cells, read-out: Inhibition

Compound	cytotoxicity at 70.5 h [%]
CN(C)C(=O)CSc1nnc(CCNC(=O)OC(C)(C)C)o1	22.7
COc1ccc(C)cc1NC(=O)Nc1cnc(N2CCOCC2)nc1	-0.928
O=S(=O)(Nc1cnc(N2CCCC2)nc1)c1ccc(C(F)(F)F)cc1	31.4
O=S(=O)(Nc1cnc(N2CCCC2)nc1)c1ccc(OC(F)(F)F)cc1	-4.76
O=S(=O)(Nc1cnc(N2CCOCC2)nc1)c1ccc(Cl)cc1	3.18
CC(C)CN1CCC2(Cc3ccccc3NC2=O)C1 (configuration not stated)	-4.52
CCN1CCOCC2(CCCN(c3nncs3)C2)C1 (configuration not stated)	-2.2
Cc1nnc([C@@H]2CCO[C@@H]3CCN(C(=O)Cc4ccccn4)C[C@@H]32)o1	-0.42
CN1CCN([C@@H]2CN(C(=O)c3ccsc3)[C@@H]3CCCO[C@H]23)CC1	-2.84
CN1CCN([C@@H]2CN(C(=O)c3ccnnc3)[C@@H]3CCCO[C@H]23)CC1	-3.3
CCCN(CC)C(=O)c1nc2c(n1C)CCN(Cc1ccccc1)C2	-4.66
COCCC1COC2(CCN(C(C)=O)CC2)C1 (configuration not stated)	-5.06
CCN(CC)[C@@H]1CN(Cc2cnn(C)c2)[C@@H]2COC[C@H]12	-5.97
CN1CC[C@]2(CN(Cc3cccs3)C[C@H]2c2ccccc2)C1=O	-4.05
O=C(C1CC=CC1)N1CC[C@H]2[C@@H]1CCC(=O)N2c1ccccc1	-3.86
Cc1nnc([C@@H]2CC[C@@H]3[C@@H](CCN3CC3CCOCC3)O2)o1	-1.38
CCCS(=O)(=O)NCC1OCCc2cn(CC3CCOCC3)nc21 (configuration not stated)	30.2
Cc1cnc(N2CCC3(CC2)CC3C(=O)NCC2CC2)nc1 (configuration not stated)	11.9
COc1ccc(N2CCOCC3(CCCN(c4cnccn4)C3)C2)cc1 (configuration not stated)	-1.59
COCC1CN(Cc2ccoc2)Cc2cn(CC3CCCC3)nc21 (configuration not stated)	-4.4
O=S(=O)(C1CC1)N1CCC2(CC1)COC(COc1ccccn1)C2 (configuration not stated)	-5.06
CCS(=O)(=O)N1CCC2(CC1)CC(OCC1CC1)CO2 (configuration not stated)	-7.89

Compound	cytotoxicity at 70.5 h [%]
COCC1CN(Cc2ccoc2)Cc2cn(CC3CCOCC3)nc21 (configuration not stated)	-9.14
COc1ccc(N2CCCC3(C2)CN(c2ncccn2)CCO3)cc1 (configuration not stated)	-2.45
CCc1ccc(C(=O)N2CCCn3nnc(Cn4cccn4)c3C2)cc1	-5.86
O=S(=O)(C1CC1)N1CCOCC2(CN(c3ncccn3)CCO2)C1 (configuration not stated)	-9.2
O=C(NCc1ccccn1)[C@@H]1COC[C@H]2CNC[C@H]21	-12.9
O=S(=O)(C1CC1)N1CCC2(CC1)COC(COc1cccnc1)C2 (configuration not stated)	-10.2
CCOCC1CN(Cc2ccco2)Cc2ccnn2C1 (configuration not stated)	-5.17
CCC(CC)CN1C[C@@H]2OCCN(Cc3cnn(C)c3)[C@@H]2C1	-3.01
Cn1cc(CN2CCO[C@H]3CN(Cc4ccco4)C[C@H]32)cn1	-2.62
Cc1ccoc1C(=O)N1CCCC2(CCCN2S(C)(=O)=O)C1 (configuration not stated)	-3.55
CS(=O)(=O)N1CCCC12CCCN(C(=O)c1ccc[nH]1)C2 (configuration not stated)	9.82
c1cncc(COCC2CN(Cc3ccncc3)Cc3ccnn3C2)c1 (configuration not stated)	1.86
CS(=O)(=O)N1CCCCC12CCN(C(=O)c1ccccc1)C2 (configuration not stated)	-8.78
c1cncc(CN2CCC3(CCCN(c4nncs4)C3)C2)c1 (configuration not stated)	-7.53
CN1CCN(C(=O)c2n[nH]c3c2CN(Cc2nccs2)CC3)CC1	-12
c1ccc(CN2Cc3ccnn3CC(COCc3cccnc3)C2)nc1 (configuration not stated)	-9.03
CCc1nn(-c2cc(Oc3cc(C)ccc3C)nc(C)n2)c(N)c1C#N	28.3
CC1CCN(C(=O)Cn2nc(Br)nc2Br)CC1	-5.71
Cn1c(N)c2c(=O)n(C)c(-c3ccc(Cl)cc3Cl)cc2c(C#N)c1=O	-4.83
Cc1cnc(N2C(=O)CSC2c2ccccc2)s1 (configuration not stated)	-9.48
CN(C)CCCNC(=O)CNC(=O)N1CCc2c([nH]c3ccccc23)C1	35.2
CC(=O)c1cn(CCC(=O)NCCC(=O)O)c2ccccc12	-12.4

Compound	cytotoxicity at 70.5 h [%]
COc1cccc2c1ccn2CC(=O)N[C@@H](CCSC)C(=O)O	-3.11
O=C1CC(c2cccc(O)c2)c2c(c(C(=O)O)cn2-c2ccccc2)N1 (configuration not stated)	4.21
O=C1CC(c2cccnc2)c2c(c(C(=O)O)cn2-c2ccccc2)N1 (configuration not stated)	-1.92
Cc1ccc2c(ccn2CC(=O)NC[C@@H]2CCCN3CCCC[C@H]23)c1	-2.59
COC(=O)CC(c1ccccc1)c1oc(C)cc(=O)c1O (configuration not stated)	6.19
CC[C@H](C)[C@H](NC(=O)c1ccccc1-n1cnnn1)C(=O)OC	33.9
CC(C)[C@H](NC(=O)NC1CCS(=O)(=O)C1)C(=O)Nc1cccnc1 (some centres not stated)	9.45
Cn1ccc2c(C(=O)N3CCC(C(N)=O)CC3)cccc21	-2.97
O=C(COc1coc(CN2CCCC2)cc1=O)NCc1ccccc1Cl	3.62
O=C(Cn1nc2c(cc1=O)CCCC2)N[C@@H](C(=O)O)c1ccccc1	-3.48
COc1ccc(C2CC(=O)Nc3c2cnn3C)cc1 (configuration not stated)	4.68
CC(=O)c1cccc(NC(=O)COc2c(C)n(C)ccc2=O)c1	-7.44
O=C(COc1coc(CN2CCCCC2)cc1=O)Nc1ccc(Cl)cc1	-3.76
Cn1ncc2c1NC(=O)CC2c1ccc(O)cc1 (configuration not stated)	7.25
Cc1n[nH]c2c1C(c1cnn(C)c1)SCC(=O)N2 (configuration not stated)	-6.84
CCn1c(=O)nc2n1C(=O)N(c1cccc(Cl)c1)C2	-1.37
COc1ccc(C2SC(C)=Nc3c2c(=O)[nH]n3C2CCCCC2)cc1O (configuration not stated)	2.14
COCC(=O)NCCn1ccc2c(OC)cccc21	-6.28
CC(C)n1ncc2c1NC(=O)CC21C(=O)Nc2c(Cl)cc(Cl)cc21 (configuration not stated)	-8.73
CC(C)n1ncc2c1NC(=O)CSC2C(C)(C)C (configuration not stated)	-2.79
O=C(CCc1nc2cccnc2[nH]1)Nc1cccnc1	-16.2
CC(C)CC1SCC(=O)Nc2c1cnn2-c1ccc(F)cc1 (configuration not stated)	-6.67

Compound	cytotoxicity at 70.5 h [%]
O=C1CSC(c2ccc(O)c(Cl)c2)c2c(n(C3CCOCC3)[nH]c2=O)N1 (configuration not stated)	6.82
O=C1CC(c2ccsc2)c2c(n(C3CCOCC3)[nH]c2=O)N1 (configuration not stated)	14.8
COc1ccc(C(=O)NCCCn2ccnc2)c(OC)n1	39.9
COc1ccc(OC)c(Sc2ncccc2C(=O)N(C)CCC#N)c1	5.96
CN(C)c1ccc(C(=O)NCC2(c3ccccc3)CCOCC2)cc1	-10.7
COc1ccc(OC)c(NC(=O)N2CCCC2c2ccco2)c1 (configuration not stated)	-12.9
O=C(CSC1=NS(=O)(=O)c2cc(F)ccc2N1)c1ccc(Cl)cc1	-17.3
COC(=O)c1cccc(C(=O)N2CCN(c3cccc(C)c3C)CC2)n1	-14.1
CCn1nc(C)c2ccn(CC(=O)NC3CCCC3)c(=O)c21	-1.39
CNC(=O)CSc1nc2c(cnn2Cc2ccc(F)cc2)c(=O)[nH]1	13.5
COC(=O)CCc1c(C)nn(-c2nc(C)cc(=O)[nH]2)c1C	36.4
CN1C(=O)C(C)(C)COc2cc(NS(=O)(=O)c3ccccc3)ccc21	8.64
CN1C(=O)C(C)(C)COc2cc(NS(=O)(=O)Cc3ccccc3)ccc21	9.19
CCS(=O)(=O)N1CCCC2(COCCN(c3nnc(C)o3)C2)C1 (configuration not stated)	-1.84
Cc1ncsc1CN1CCn2c(COCC3CC3)cnc2C1C (configuration not stated)	-2.63
CC(C)NC(=O)C[C@H]1[C@H]2CN(C(=O)Cc3ccccn3)C[C@@H]12	1.47
CC(C)CN1CCCC2(CCN(c3ccc(C#N)cn3)C2)C1 (configuration not stated)	2.01
CN1CC[C@]2(CN(Cc3nccs3)C[C@H]2c2ccccc2)C1=O	4.14
CNC(=O)[C@@H]1CC[C@@H]2[C@@H](CCN2Cc2cn(C)c3ccccc23)O1	-3.34
N#Cc1ccc(N2CCC3(CCCN(c4ccccn4)C3)C2)nc1 (configuration not stated)	-1.5
O=S(=O)(C1CC1)N1CC[C@H](OCC2CC2)[C@@H]1Cc1cccnc1	-4.98
CN(C)C(=O)C1CCC2(CCN(Cc3cnn(C)c3)CC2)C1 (configuration not stated)	-7.73

Compound	cytotoxicity at 70.5 h [%]
Cc1noc(C)c1CN1C[C@H](OCC(=O)N(C)C)[C@H]2OCCC[C@H]21	-6.96
Cc1cccc(CN2C[C@@H]3OCCN(c4cnccn4)[C@@H]3C2)n1	-4.63
O=C(c1cccnc1)N1CCOC2(COCCN(c3cncnc3)C2)C1 (configuration not stated)	-9.01
Cc1noc(C)c1CN1C[C@H](OCC(=O)N(C)C)[C@H]2COC[C@H]21	-6.89
CN(C)S(=O)(=O)N1C[C@H]2CCC[C@@]2(COCc2cccnc2)C1	-6.86
Cc1noc(C)c1CN1C[C@H](OCC2CC2)[C@H]2COC[C@H]21	-7.4
COCC(=O)N1CCOC2(CCCN(c3cnccn3)C2)C1 (configuration not stated)	-9.25
O=C(N1CCCC1)N1CC[C@H]2OCC[C@@]2(COc2ncccc2F)C1	-1.3
Fc1ccc(CN2CCC3(CCCN(c4nncs4)C3)C2)cc1 (configuration not stated)	-2.74
O=C(c1ncccn1)N1CC[C@H]2OCC[C@@]2(COc2ccccn2)C1	-6.64
c1coc(CN2Cc3ccnn3CC(COCC3CC3)C2)c1 (configuration not stated)	-6.27
Fc1cnc(N2CC[C@@H]3O[C@H](COCc4ccccn4)CC[C@@H]32)nc1	-3.08
Cc1ccc(N2CC[C@@H]3O[C@@H](COCc4cccnc4)CC[C@@H]32)nn1	-3.24
O=C(NCc1ccccn1)[C@@H]1COC[C@H]2CN(c3ncccn3)C[C@H]21	-6.07
c1cncc(OCC2CC3(CCN(CC4CC4)CC3)CO2)c1 (configuration not stated)	-10.5
Cc1nc(C)n(CC2CN(Cc3cccnc3)Cc3nccn3C2)n1 (configuration not stated)	-1.38
Cc1ncsc1CN1C[C@H](OCc2ccncc2)[C@H]2OCCC[C@H]21	-8.48
CC(C)N1[C@@H](C(=O)NCCN(C)C)C[C@H]2CN(c3ncccn3)C[C@H]21	-2.96
O=C(NCCc1ccccc1)C1CCC(Cn2cnnn2)CC1 (configuration not stated)	-2.34
